Assays:
human IBAT = molecular target: T1, human IBAT (Homo sapiens, UniProt Q12908); experiment: IBAT (h/m) assay, human IBAT-overexpressing cells, 3H-taurocholic acid uptake; type: cell-based; details: 0.25 μM 3H-taurocholic acid + 5 μM cold taurocholic acid, 20 minutes, read-out: hIBAT IC50
T1 construct: expressed in transfected cells; Puromycin-selected IBAT-overexpressing cells
T1 sequence (Q12908 1-348): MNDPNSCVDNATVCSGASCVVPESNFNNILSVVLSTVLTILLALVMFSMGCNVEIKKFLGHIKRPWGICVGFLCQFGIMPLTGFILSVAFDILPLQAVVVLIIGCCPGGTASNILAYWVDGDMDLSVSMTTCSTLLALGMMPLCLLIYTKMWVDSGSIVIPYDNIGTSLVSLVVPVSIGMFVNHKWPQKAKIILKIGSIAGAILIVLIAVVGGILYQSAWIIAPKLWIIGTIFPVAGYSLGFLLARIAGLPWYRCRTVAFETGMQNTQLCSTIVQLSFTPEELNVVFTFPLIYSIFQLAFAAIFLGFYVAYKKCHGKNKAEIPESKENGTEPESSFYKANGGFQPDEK
Procedure: 10,000 cells (Human or Mouse IBAT-overexpressing cells) were seeded in 96-wells plate (Corning CLS3809) in 200 μL MEM-alpha medium (Gibco 12571-063) supplemented with 10% FBS (Gibco 10438026) containing Puromycin (Gibco A1113803) (10 μg/mL) and incubated at 37° C. in 5% CO2 for 48 hours. After incubation, media was decanted from the wells and cells were washed two times with 300 μL of basal MEM-alpha medium (FBS-free). After decanting basal MEM-alpha medium each time, plates were tapped against paper towel to ensure maximum removal of residual media. Test inhibitor dilutions (highest test concentration being 10 μM, 3-fold serial dilution, 10 points) prepared in DMSO (Sigma D2650) were added in incubation mix (maintaining 0.2% final DMSO concentration) containing 0.25 μM 3H-taurocholic acid (ARC ART-1368) and 5 μM of cold taurocholic acid (Sigma T4009). 50 μL of incubation mix containing test inhibitors was then added to the wells (in duplicate) and the plates were incubated for 20 minutes in a CO2 incubator at 37° C. After incubation, the reaction was stopped by keeping the plates on ice water mix for 2-3 minutes and then the incubation mix was aspirated completely from the wells. The wells were washed two times with 250 μL of chilled unlabelled 1 mM taurocholic acid dissolved in HEPES (Gibco 15630080)-buffered (10 mM) HBSS (Gibco 14175079) (pH 7.4). The plates were tapped against a paper towel after every wash to ensure maximum removal of blocking buffer.
(§1) 100 μL of MicroScint-20 (PerkinElmer 6013621) was added to the wells and kept overnight at room temperature before reading the plates in TopCount NXT™ Microplate Scintillation and Luminescence Counter from PerkinElmer under 3H Test protocol (set at 120 seconds reading time per well).
(§2) All test compounds were provided in powder form at room temperature. 10 mM DMSO stocks of the test compounds were prepared, aliquoted and stored at −20° C. From the 10 mM DMSO stock of the compounds, a 3-fold serial dilution in DMSO was prepared to get a total of 10 dilutions of the test compounds. 0.5 μL of this dilution in DMSO was added to 250 μL of FBS-free basal media containing 3H-taurocholic acid and cold taurocholic acid to prepare the incubation mixture.

human LBAT = molecular target: T2, human LBAT (Homo sapiens, UniProt Q14973); experiment: LBAT (h/m) assay, human LBAT-overexpressing cells, 3H-taurocholic acid uptake; type: cell-based; details: 0.3 μM 3H-taurocholic acid + 7.5 μM cold taurocholic acid, 20 minutes, read-out: hLBAT IC50
T2 construct: expressed in transfected cells; Geneticin-selected LBAT-overexpressing cells
T2 sequence (Q14973 1-349): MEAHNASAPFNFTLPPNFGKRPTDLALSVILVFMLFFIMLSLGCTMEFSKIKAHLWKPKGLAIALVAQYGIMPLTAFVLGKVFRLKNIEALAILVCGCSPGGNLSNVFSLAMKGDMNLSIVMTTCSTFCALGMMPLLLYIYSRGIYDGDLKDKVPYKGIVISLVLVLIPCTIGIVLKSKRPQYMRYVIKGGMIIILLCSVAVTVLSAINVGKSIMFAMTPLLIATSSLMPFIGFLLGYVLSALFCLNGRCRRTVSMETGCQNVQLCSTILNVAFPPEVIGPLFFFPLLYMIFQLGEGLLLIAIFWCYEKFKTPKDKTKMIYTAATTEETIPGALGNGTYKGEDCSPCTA
Procedure: 20,000 cells (Human or Mouse LBAT-overexpressing cells) were seeded in 96-wells plate (Corning CLS3809) in 100 μL MEM-alpha medium (Gibco 12571-063) supplemented with 10% FBS (Gibco 10438026) containing Geneticin (Gibco 10131-027) (1 mg/mL) and incubated at 37° C. in 5% CO2 for 24 hours. After incubation, media was decanted from the wells and cells were washed two times with 300 μL of basal MEM-alpha medium (FBS-free). After decanting basal MEM-alpha medium each time, plates were tapped against paper towel to ensure maximum removal of residual media.
For human LBAT, incubation mix was prepared by adding test inhibitor dilutions (3-fold serial dilution in DMSO (Sigma D2650), 10 points) in MEM-alpha (without FBS) containing 0.3 μM 3H-taurocholic acid (ARC ART-1368) and 7.5 μM cold taurocholic acid (Sigma T4009) (maintaining 0.2% final DMSO concentration). For mouse LBAT, incubation mix was prepared by adding test inhibitor dilutions (3-fold serial dilution in DMSO, 10 points) in MEM-alpha (without FBS) containing 0.3 μM 3H-taurocholic acid and 25 μM cold taurocholic acid maintaining 0.2% final DMSO concentration).
50 μL of incubation mix containing test inhibitors was then added to the wells (in duplicate) and the plates were incubated for 20 minutes in a CO2 incubator at 37° C. After incubation, the reaction was stopped by keeping the plates on ice water mix for 2-3 minutes and then the incubation mix was aspirated completely from the wells. The wells were washed two times with 250 μL of chilled unlabelled 1 mM taurocholic acid dissolved in HEPES (Gibco 15630080)-buffered (10 mM) HBSS (Gibco 14175079) (pH 7.4). The plates were tapped against a paper towel after every wash to ensure maximum removal of blocking buffer.
as §1, with “well, with normal plate orientation).” for “well).”
as §2

SMILES	IC50 (human IBAT) [nM]	IC50 (human LBAT) [nM]
CCCCC1(CC)CN(c2ccccc2)c2cc(SC)c(OCCC(=O)O)cc2S(=O)(=O)N1 (racemic) [Example 2, 3-((3-butyl-3-ethyl-7-(methylthio)-1,1-dioxido-5-phenyl-2,3,4,5-tetrahydro-1,2,5-benzothiadiazepin-8-yl)oxy)propanoic acid]	4	736
CCCCC1(CC)CN(c2ccccc2)c2cc(SC)c(OCCC(=O)O)cc2S(=O)(=O)N1 (single isomer, unassigned) [Example 3, 3-((3-butyl-3-ethyl-7-(methylthio)-1,1-dioxido-5-phenyl-2,3,4,5-tetrahydro-1,2,5-benzothiadiazepin-8-yl)oxy)propanoic acid]	23	283

More lines, now with the values ahead:

IC50 (human IBAT) [nM]	IC50 (human LBAT) [nM]	SMILES
14	3660	CCCCC1(CCCC)CN(c2ccccc2)c2cc(SC)c(OCC(O)C(=O)O)cc2S(=O)(=O)N1 (single isomer, unassigned) [Example 6, 3-((3,3-dibutyl-7-(methylthio)-1,1-dioxido-5-phenyl-2,3,4,5-tetrahydro-1,2,5-benzothiadiazepin-8-yl)oxy)-2-hydroxypropanoic acid]
15	2220	CCCCC1(CC)CN(c2ccccc2)c2cc(N(C)C)c(OCCC(=O)O)cc2S(=O)(=O)N1 (single isomer, unassigned) [Example 13, 3-((3-butyl-7-(dimethylamino)-3-ethyl-1,1-dioxido-5-phenyl-2,3,4,5-tetrahydro-1,2,5-benzothiadiazepin-8-yl)oxy)propanoic acid]
6	342	CCCCC1(CC)CN(c2ccccc2)c2cc(SC)c(OCC(N)C(=O)O)cc2S(=O)(=O)N1 (stereo not shown) [Example 14, O-(3-butyl-3-ethyl-7-(methylthio)-1,1-dioxido-5-phenyl-2,3,4,5-tetrahydro-1,2,5-benzothiadiazepin-8-yl)serine]

Reference: patent publication US11603359B2, “Benzothiadiazepine compounds and their use as bile acid modulators” (Albireo AB, priority 2019, dated 2023)
